This is an account of results in patent US20260335299A1, “SUBSTITUTED OXOISOINDOLINYL PIPERIDINE-2,6-DIONE COMPOUND AS ANTICANCER AGENT” (BRISTOL-MYERS SQUIBB COMPANY, priority 2023, published 2026).

Each structure is given as a SMILES string.

For assay [1], the target named is T1, IKZF2 Helios (Homo sapiens, UniProt Q96SW2+Q9UKS7). The experiment in a line: Human Regulatory T Cell Degradation Assay (Helios). The conditions noted are these: human regulatory T cells, 20 h. The format is cell-based. Also on record: Human CD4+ T cells were isolated from fresh healthy leukopaks; endogenous in cells; host or cells: FACS-sorted primary human regulatory T cells from healthy leukopaks. As for the experimental part: Cryopreserved human regulatory T cells were thawed in RPMI+10% FBS+20 ng/mL IL-2. After being spun at 1200 rpm for 5 mins, the cells were resuspended in RPMI+10% FBS+20 ng/ml and rested at 37° C. with 5% CO2 for 3 hours. The cells were then plated at 40,000 cells/well in 40 μL RPMI+10% FBS+20 ng/mL human IL-2 in a 384 well cell culture plate prior to using acoustic dispensing technology (ECHO 555) for adding compounds of interest. Cell cultures were incubated for 20 hours at 37° C. and 5% CO2. In order to facilitate analysis, cell cultures were spun down at 1200 rpm for 5 minutes and the supernatant was discarded using an EL406 plate washer. After washing three times with […] PBS, cell pellets were resuspended in 50 μL of […] viability staining solution (Life Technologies, Cat #L34975) and incubated for 30 minutes on ice protected from light. Cells were washed three times with 70 μL PBS+0.5% BSA using an EL406 plate washer. […] Stained cells were resuspended in 30 μL of flow cytometry staining buffer (PBS+0.5% BSA) and analyzed using an Intellicyt Ique Plus flow cytometer.
T1 sequence (Q9UKS7 whole entry): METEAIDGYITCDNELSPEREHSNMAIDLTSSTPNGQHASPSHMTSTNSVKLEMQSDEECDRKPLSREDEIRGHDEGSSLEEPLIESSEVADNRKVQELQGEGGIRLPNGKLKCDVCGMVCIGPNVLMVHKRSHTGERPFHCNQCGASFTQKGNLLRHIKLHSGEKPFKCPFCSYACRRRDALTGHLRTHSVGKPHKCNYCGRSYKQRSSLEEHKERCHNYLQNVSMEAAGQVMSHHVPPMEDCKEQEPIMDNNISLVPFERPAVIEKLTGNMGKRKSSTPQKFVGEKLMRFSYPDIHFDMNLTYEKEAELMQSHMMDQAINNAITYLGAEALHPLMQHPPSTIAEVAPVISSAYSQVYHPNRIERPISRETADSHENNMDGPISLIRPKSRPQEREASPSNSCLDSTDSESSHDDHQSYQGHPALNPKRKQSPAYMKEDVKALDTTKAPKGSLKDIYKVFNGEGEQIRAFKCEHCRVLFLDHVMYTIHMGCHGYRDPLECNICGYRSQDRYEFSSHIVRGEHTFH
T1 sequence (Q96SW2 whole entry): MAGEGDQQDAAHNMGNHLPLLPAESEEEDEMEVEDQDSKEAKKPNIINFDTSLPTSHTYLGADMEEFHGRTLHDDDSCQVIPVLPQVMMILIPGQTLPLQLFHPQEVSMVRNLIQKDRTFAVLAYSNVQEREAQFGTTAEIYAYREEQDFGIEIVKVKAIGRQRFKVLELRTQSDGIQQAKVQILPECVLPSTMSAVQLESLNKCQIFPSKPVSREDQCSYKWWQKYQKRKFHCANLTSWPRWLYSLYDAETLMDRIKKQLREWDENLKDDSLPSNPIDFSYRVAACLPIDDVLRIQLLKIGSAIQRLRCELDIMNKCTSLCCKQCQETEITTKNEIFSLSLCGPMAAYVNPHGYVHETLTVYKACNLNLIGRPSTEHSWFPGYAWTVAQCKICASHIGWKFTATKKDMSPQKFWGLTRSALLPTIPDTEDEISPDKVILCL
T1 sequence (Q16531 whole entry partner): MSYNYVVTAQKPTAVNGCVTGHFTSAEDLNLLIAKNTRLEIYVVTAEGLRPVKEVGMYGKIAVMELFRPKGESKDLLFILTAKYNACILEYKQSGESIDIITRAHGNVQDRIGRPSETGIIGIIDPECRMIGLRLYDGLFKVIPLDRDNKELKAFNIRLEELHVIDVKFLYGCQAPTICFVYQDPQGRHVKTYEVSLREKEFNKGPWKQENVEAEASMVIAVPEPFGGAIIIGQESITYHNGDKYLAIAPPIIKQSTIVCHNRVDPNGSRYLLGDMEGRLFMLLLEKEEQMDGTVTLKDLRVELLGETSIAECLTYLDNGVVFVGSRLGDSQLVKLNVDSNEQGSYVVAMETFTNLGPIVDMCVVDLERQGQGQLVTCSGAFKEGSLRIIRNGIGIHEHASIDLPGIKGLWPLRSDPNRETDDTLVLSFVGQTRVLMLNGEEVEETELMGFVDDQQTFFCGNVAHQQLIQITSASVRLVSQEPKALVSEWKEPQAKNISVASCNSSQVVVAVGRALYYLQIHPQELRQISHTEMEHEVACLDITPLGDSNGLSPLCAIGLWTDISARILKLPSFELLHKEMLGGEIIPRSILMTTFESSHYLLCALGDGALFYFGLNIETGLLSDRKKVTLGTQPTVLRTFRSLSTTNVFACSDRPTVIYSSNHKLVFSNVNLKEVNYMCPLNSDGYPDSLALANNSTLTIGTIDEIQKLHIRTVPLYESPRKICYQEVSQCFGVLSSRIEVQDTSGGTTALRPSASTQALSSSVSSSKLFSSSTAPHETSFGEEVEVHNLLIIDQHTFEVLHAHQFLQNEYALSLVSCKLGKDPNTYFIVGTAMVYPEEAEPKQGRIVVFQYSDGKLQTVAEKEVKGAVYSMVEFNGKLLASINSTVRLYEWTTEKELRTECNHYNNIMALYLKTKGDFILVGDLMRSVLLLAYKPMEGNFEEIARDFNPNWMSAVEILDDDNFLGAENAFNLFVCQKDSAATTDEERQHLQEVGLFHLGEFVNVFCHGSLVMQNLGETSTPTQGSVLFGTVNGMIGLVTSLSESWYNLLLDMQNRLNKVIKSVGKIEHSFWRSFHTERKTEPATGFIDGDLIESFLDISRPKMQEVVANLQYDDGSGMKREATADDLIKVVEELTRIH
Table B-1 lists the maximum observed degradation of the IKZF1 protein and IKZF2 protein as measured in the Human Regulatory T Cell Degradation assay. […]

In assay [2] the target is T1, IKZF2 Helios. Kind of assay: Jurkat Cellular Degradation Assay (Helios). Type of assay: cell-based. Also noted: endogenous in cells; host or cells: Jurkat cells. Particulars: Jurkat cells, 72 h. Here is the method: Jurkat cells were plated at 80,000 cells/well in 40 μL RPMI+10% FBS in a 384-well cell culture plate prior to using acoustic dispensing technology for adding a compound of interest. Cell cultures were incubated for 72 h at 37° C. and 5% CO2. In order to facilitate analysis, cell cultures were spun down at 200 rpm for 5 min and the supernatant was discarded. After shaking the plate to dislodge the cell pellet, cells were resuspended in 50 μL of Fixation Buffer (eBioscience FoxP3 buffer set 00-5523-00) for 60 min at room temperature. After centrifuging and discarding the supernatant, cells were permeabilized with 50 μL of Permeabilization buffer (eBioscience FoxP3 buffer set 00-5523-00) for 10 min at room temperature. […] Stained cells were resuspended in 25 μL of flow cytometry staining buffer [PBS+0.2% bovine serum albumin (BSA)] and analyzed using an Intellicyt Ique Plus flow cytometer.
Table A-1 lists the maximum observed degradation of the IKZF1 protein, IKZF2 protein, and IKZF3 protein as measured in the Jurkat Cellular Degradation assay. […]

Where [3] appears, read: concentration reducing protein level by 50% compared to DMSO alone.

In the case of `Nc1nc(-c2ccc3c(c2F)CN(C2CCC(=O)NC2=O)C3=O)ccc1CN1CC(C2CCC(F)(F)CC2)C1` (stereo not shown) [Example 1, 3-(5-(6-Amino-5-((3-(4,4-difluorocyclohexyl)azetidin-1-yl)methyl)pyridin-2-yl)-4-fluoro-1-oxoisoindolin-2-yl) piperidine-2,6-dione], the Dmax on IKZF2 Helios [1] (Regulatory T cell, read-out: IKZF2 Helios max % deg. observed) was 96%; at IKZF2 Helios [2] (human, read-out: IKZF2 Helios max % deg. observed) it was 92%. Moreover, the DC50 amounted to 0.1 nM on IKZF2 Helios [1] (setting [3]) and 4.4 nM on IKZF2 Helios [2] (setting [3]).
